# Numbers after ± are expanded uncertainties.
# Experiments:
# [1] = xn = mol fraction of the nth substance listed; settings: x2 = 0; for surface tension liquid-gas: Maximal bubble pressure; for mass density: 100 kPa, Liquid, Vibrating tube method
# [2] = for surface tension liquid-gas: Maximal bubble pressure; for mass density: 100 kPa, Liquid, Vibrating tube method
Structure (SMILES),surface tension liquid-gas ([1]; 288.15 K),mass density ([1]; 288.15 K),surface tension liquid-gas ([1]; 293.15 K),mass density ([1]; 293.15 K),surface tension liquid-gas ([1]; 298.15 K),mass density ([1]; 298.15 K),surface tension liquid-gas ([1]; 303.15 K),mass density ([1]; 303.15 K),surface tension liquid-gas ([1]; 308.15 K),mass density ([1]; 308.15 K),surface tension liquid-gas ([1]; 313.15 K),mass density ([1]; 313.15 K),surface tension liquid-gas ([1]; 318.15 K),mass density ([1]; 318.15 K),surface tension liquid-gas ([2]; 288.15 K),mass density ([2]; 288.15 K),surface tension liquid-gas ([2]; 293.15 K),mass density ([2]; 293.15 K),surface tension liquid-gas ([2]; 298.15 K),mass density ([2]; 298.15 K),also measured
CO [methanol] + COCC[n+]1ccn(C)c1.O=S(=O)([N-]S(=O)(=O)C(F)(F)F)C(F)(F)F,24.4 ± 2.4 mN/m,796.037 ± 4.9 kg/m3,23.8 ± 2.4 mN/m,791.352 ± 4.9 kg/m3,22.9 ± 2.3 mN/m,786.643 ± 4.9 kg/m3,22.3 ± 2.2 mN/m,781.913 ± 4.8 kg/m3,21.8 ± 2.2 mN/m,777.16 ± 4.8 kg/m3,21.1 ± 2.1 mN/m,772.38 ± 4.8 kg/m3,20.5 ± 2.1 mN/m,767.567 ± 4.8 kg/m3,,,,,,,
CCO [ethanol] + COCC[n+]1ccn(C)c1.O=S(=O)([N-]S(=O)(=O)C(F)(F)F)C(F)(F)F,23.3 ± 2.3 mN/m,793.91 ± 4.9 kg/m3,22.7 ± 2.3 mN/m,789.66 ± 4.9 kg/m3,22.2 ± 2.2 mN/m,785.73 ± 4.9 kg/m3,21.6 ± 2.2 mN/m,781.05 ± 4.8 kg/m3,21.1 ± 2.1 mN/m,776.7 ± 4.8 kg/m3,20.7 ± 2.1 mN/m,772.31 ± 4.8 kg/m3,20 ± 2 mN/m,767.88 ± 4.8 kg/m3,,,,,,,
CO [methanol],,,,,,,,,,,,,,,24.4 ± 2.4 mN/m,796.037 ± 4.9 kg/m3,23.8 ± 2.4 mN/m,791.352 ± 4.9 kg/m3,22.9 ± 2.3 mN/m,786.643 ± 4.9 kg/m3,surface tension liquid-gas ([2]; 303.15 K): 22.3 ± 2.2 mN/m; mass density ([2]; 303.15 K): 781.913 ± 4.8 kg/m3; surface tension liquid-gas ([2]; 308.15 K): 21.8 ± 2.2 mN/m; mass density ([2]; 308.15 K): 777.16 ± 4.8 kg/m3; surface tension liquid-gas ([2]; 313.15 K): 21.1 ± 2.1 mN/m; mass density ([2]; 313.15 K): 772.38 ± 4.8 kg/m3; surface tension liquid-gas ([2]; 318.15 K): 20.5 ± 2.1 mN/m; mass density ([2]; 318.15 K): 767.567 ± 4.8 kg/m3
COCC[n+]1ccn(C)c1.O=S(=O)([N-]S(=O)(=O)C(F)(F)F)C(F)(F)F,,,,,,,,,,,,,,,41.4 ± 4.2 mN/m,1515.3 ± 9.4 kg/m3,41.2 ± 4.1 mN/m,1510.15 ± 9.4 kg/m3,41 ± 4.1 mN/m,1505.03 ± 9.4 kg/m3,surface tension liquid-gas ([2]; 303.15 K): 40.7 ± 4.1 mN/m; mass density ([2]; 303.15 K): 1499.92 ± 9.3 kg/m3; surface tension liquid-gas ([2]; 308.15 K): 40.5 ± 4.1 mN/m; mass density ([2]; 308.15 K): 1494.83 ± 9.3 kg/m3; surface tension liquid-gas ([2]; 313.15 K): 40.3 ± 4 mN/m; mass density ([2]; 313.15 K): 1489.77 ± 9.3 kg/m3; surface tension liquid-gas ([2]; 318.15 K): 40.1 ± 4 mN/m; mass density ([2]; 318.15 K): 1484.72 ± 9.2 kg/m3

# Reference: the NIST ThermoML archive (doi:10.1016/j.jct.2019.06.005)
